Reference: US20100004267A1, “LIQUID PREPARATION” (ASUBIO PHARMA CO., LTD., priority 2006, published 2010)

Key:
Type in all cases: physicochemical
[1] = Reduction in surface activity in SUN N8075 aqueous solution (Test example 7); set-up: key: A: Much less foaming than Control; B: Clearly less foaming than Control; Slightly less foaming than Control; D: Comparable to Control; E: More foaming than Control
Description: (§1) Into each test compound solution which was prepared in advance to achieve each adding concentration shown in the Table, SUN N8075 was added and dissolved so that the concentration thereof was 5 mg/mL, and the pH value was adjusted to 3 to 4 as appropriate by hydrochloric acid to prepare a sample solution.
(§2) Each 10 mL of sample solution was put into a 10-mL stoppered test tube, and shaken 30 strokes vertically by hand and allowed to stand upright, and under room diffused light, appearance of sample solution after shaking, foaming property (foaming quantity), defoaming time, post standing observation (after standing for 3 days or more) were evaluated.
(§3) As a control, an aqueous solution containing no test substance but containing 5 mg/mL of SUN N8075 was examined in a similar manner.

[2] = as above; set-up: key to Appearance after shaking / Appearance after standing: A: Clear; B+: Almost clear; B: Much less insoluble matters than Control; Clearly less insoluble matter than Control; D: Comparable amount of insoluble matters with Control; E: More insoluble matters than Control; key to General judgment: A: Great effect; B+: Large effect; B: Effective; C: Effective but very small; D: Comparable to Control (No effect); E: Inferior to Control (clouded); key to Foaming property: A: Much less foaming than Control; B: Clearly less foaming than Control; Slightly less foaming than Control; D: Comparable to Control; E: More foaming than Control
Description: as §1, §2, §3

[3] = Examination of properties of SUN N8075 itself; conditions: pH around neutrality
[4] = Control: 5 mg/mL SUN N8075 aqueous solution, no test substance

Defoaming time ([1]; Chlorobutanol 0.10%): D
Defoaming time ([1]; Sodium chloride 25 mM): D
Appearance after shaking ([2]; Captisol 10.00%): A
Appearance after standing ([2]; Captisol 10.00%): A
Defoaming time ([2]; Captisol 10.00%): A (In 20 minutes)
Foaming property ([2]; Captisol 10.00%): A
General judgment ([2]; Captisol 10.00%): A
Appearance after shaking ([2]; Chlorobutanol 0.10%): D
Appearance after standing ([2]; Chlorobutanol 0.10%): D
Foaming property ([2]; Chlorobutanol 0.10%): C
General judgment ([2]; Chlorobutanol 0.10%): D
Appearance after shaking ([2]; Chlorobutanol 0.50%): B
Appearance after standing ([2]; Chlorobutanol 0.50%): A
Foaming property ([2]; Chlorobutanol 0.50%): B
General judgment ([2]; Chlorobutanol 0.50%): B+
Appearance after shaking ([2]; Chlorobutanol […]): C
Appearance after standing ([2]; Chlorobutanol […]): A
Foaming property ([2]; Chlorobutanol […]): C
General judgment ([2]; Chlorobutanol […]): B
Foaming property [2, 4]: Very high foaming property in Control
Appearance after shaking ([2]; Ethanol 1.00%): B
Appearance after standing ([2]; Ethanol 1.00%): B
Foaming property ([2]; Ethanol 1.00%): C
General judgment ([2]; Ethanol 1.00%): B
Appearance after shaking ([2]; Ethanol 5.00%): D
Appearance after standing ([2]; Ethanol 5.00%): E
Foaming property ([2]; Ethanol 5.00%): D
General judgment ([2]; Ethanol 5.00%): D
Appearance after shaking ([2]; Ethanol 10.00%): D
Appearance after standing ([2]; Ethanol 10.00%): E
Foaming property ([2]; Ethanol 10.00%): D
General judgment ([2]; Ethanol 10.00%): D
Appearance after shaking ([2]; Ethanol […]): B
Appearance after standing ([2]; Ethanol […]): C
Foaming property ([2]; Ethanol […]): D
General judgment ([2]; Ethanol […]): C
Appearance after shaking ([2]; Glycine 100 mM): B
Appearance after standing ([2]; Glycine 100 mM): B
Foaming property ([2]; Glycine 100 mM): B
General judgment ([2]; Glycine 100 mM): B
Appearance after shaking ([2]; L-Arginine 30 mM): B+
Appearance after standing ([2]; L-Arginine 30 mM): B+
Defoaming time ([2]; L-Arginine 30 mM): B (In 60 minutes)
Foaming property ([2]; L-Arginine 30 mM): B
General judgment ([2]; L-Arginine 30 mM): B+
Appearance after shaking ([2]; L-Arginine 60 mM): A
Appearance after standing ([2]; L-Arginine 60 mM): A
Defoaming time ([2]; L-Arginine 60 mM): A (In 20 minutes)
Foaming property ([2]; L-Arginine 60 mM): A
General judgment ([2]; L-Arginine 60 mM): A
Appearance after shaking ([2]; L-Histidine 60 mM): A
Appearance after standing ([2]; L-Histidine 60 mM): A
Defoaming time ([2]; L-Histidine 60 mM): A (In 20 minutes)
Foaming property ([2]; L-Histidine 60 mM): A
General judgment ([2]; L-Histidine 60 mM): A
Appearance after shaking ([2]; Meglumine 25 mM): C
Appearance after standing ([2]; Meglumine 25 mM): C
Foaming property ([2]; Meglumine 25 mM): D
General judgment ([2]; Meglumine 25 mM): C
Appearance after shaking ([2]; Meglumine 50 mM): A
Appearance after standing ([2]; Meglumine 50 mM): A
Defoaming time ([2]; Meglumine 50 mM): B (In 60 minutes)
Foaming property ([2]; Meglumine 50 mM): C
General judgment ([2]; Meglumine 50 mM): B
Appearance after shaking ([2]; Meglumine 75 mM): A
Appearance after standing ([2]; Meglumine 75 mM): A
Defoaming time ([2]; Meglumine 75 mM): B (In 60 minutes)
Foaming property ([2]; Meglumine 75 mM): B
General judgment ([2]; Meglumine 75 mM): A
Appearance after shaking ([2]; Meglumine 100 mM): A
Appearance after standing ([2]; Meglumine 100 mM): A
Defoaming time ([2]; Meglumine 100 mM): A (In 20 minutes)
Foaming property ([2]; Meglumine 100 mM): C
General judgment ([2]; Meglumine 100 mM): A
Appearance after shaking ([2]; Methane sulfonic acid 15 mM): D
Appearance after standing ([2]; Methane sulfonic acid 15 mM): D
Foaming property ([2]; Methane sulfonic acid 15 mM): B
General judgment ([2]; Methane sulfonic acid 15 mM): D
Appearance after shaking ([2]; Propylene glycol 1.00%): B
Appearance after standing ([2]; Propylene glycol 1.00%): A
Foaming property ([2]; Propylene glycol 1.00%): B
General judgment ([2]; Propylene glycol 1.00%): B+
Appearance after shaking ([2]; Propylene glycol 5.00%): B
Appearance after standing ([2]; Propylene glycol 5.00%): D
Foaming property ([2]; Propylene glycol 5.00%): D
General judgment ([2]; Propylene glycol 5.00%): D
Appearance after shaking ([2]; Propylene glycol 10.00%): C
Appearance after standing ([2]; Propylene glycol 10.00%): D
Foaming property ([2]; Propylene glycol 10.00%): D
General judgment ([2]; Propylene glycol 10.00%): D
Appearance after shaking ([2]; Propylene glycol […]): C
Appearance after standing ([2]; Propylene glycol […]): D
Foaming property ([2]; Propylene glycol […]): D
General judgment ([2]; Propylene glycol […]): D
Appearance after shaking ([2]; Sodium L-glutamate 30 mM): B+
Appearance after standing ([2]; Sodium L-glutamate 30 mM): B+
Foaming property ([2]; Sodium L-glutamate 30 mM): B+
General judgment ([2]; Sodium L-glutamate 30 mM): B+
Appearance after shaking ([2]; Sodium L-glutamate 60 mM): A
Appearance after standing ([2]; Sodium L-glutamate 60 mM): A
Defoaming time ([2]; Sodium L-glutamate 60 mM): A (In 20 minutes)
Foaming property ([2]; Sodium L-glutamate 60 mM): B+
General judgment ([2]; Sodium L-glutamate 60 mM): A
Appearance after shaking ([2]; Sodium chloride 25 mM): D
Appearance after standing ([2]; Sodium chloride 25 mM): D
Foaming property ([2]; Sodium chloride 25 mM): B
General judgment ([2]; Sodium chloride 25 mM): D
Appearance after shaking ([2]; Sodium chloride 50 mM): B
Appearance after standing ([2]; Sodium chloride 50 mM): B
Foaming property ([2]; Sodium chloride 50 mM): A
General judgment ([2]; Sodium chloride 50 mM): C
Appearance after shaking ([2]; Sodium chloride 75 mM): A
Appearance after standing ([2]; Sodium chloride 75 mM): A
Defoaming time ([2]; Sodium chloride 75 mM): A (In 20 minutes)
Foaming property ([2]; Sodium chloride 75 mM): B+
General judgment ([2]; Sodium chloride 75 mM): A
Appearance after shaking ([2]; Sodium chloride 100 mM): A
Appearance after standing ([2]; Sodium chloride 100 mM): A
Defoaming time ([2]; Sodium chloride 100 mM): A (In 20 minutes)
Foaming property ([2]; Sodium chloride 100 mM): B
General judgment ([2]; Sodium chloride 100 mM): A
Solubility [3]: very low
Compound: Cc1cc(OC[C@@H](O)CN2CCN(c3ccc(Cc4ccc(F)cc4)cc3)CC2)c(C)c(C)c1N [SUN N8075, (2S)-1-(4-amino-2,3,5-trimethylphenoxy)-3-{4-[4-(4-fluorobenzyl)phenyl]-1-piperazinyl}-2-propanol dimethane sulfonate]
Appearance after shaking/Appearance after standing [2, 4]: Large amount of insoluble matters in wall face and appearance in Control
Defoaming time ([2]; Control: 5 mg/mL SUN N8075 aqueous solution, no test substance, standing): Not defoamed after standing for 1 week in Control
